Here are results for 33 compounds from US8183380B2, “2-aminoquinolines” (Hoffmann-La Roche Inc., priority 2008, dated 2012).

Structures can show the parent of a compound that is named as a salt.

The target in the assay is T1, recombinant human 5-HT5A receptor (Homo sapiens, UniProt P47898).
T1 construct: expressed in transfected cells; host or cells: HEK-EBNA (Human Embryonic Kidney-EBNA) cells, transient cDNA expression; membranes
T1 sequence (P47898 whole entry): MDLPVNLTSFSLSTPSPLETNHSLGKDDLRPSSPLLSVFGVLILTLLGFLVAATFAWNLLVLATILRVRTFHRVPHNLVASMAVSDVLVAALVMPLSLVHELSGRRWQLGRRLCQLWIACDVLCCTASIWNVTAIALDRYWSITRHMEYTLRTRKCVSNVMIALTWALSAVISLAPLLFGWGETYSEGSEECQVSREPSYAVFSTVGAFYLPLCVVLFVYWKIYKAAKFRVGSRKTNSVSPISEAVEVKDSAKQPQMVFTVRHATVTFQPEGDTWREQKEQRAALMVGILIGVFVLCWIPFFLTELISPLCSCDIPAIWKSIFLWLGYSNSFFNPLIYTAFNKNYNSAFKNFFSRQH
Put plainly: [3H]LSD radioligand binding assay. The following applies: [3H]LSD (approximately 1 nM); membranes from transiently expressed 5-HT5A receptors in HEK-EBNA cells; Ki from IC50 by Cheng-Prussoff equation. The procedure:
A [^3H]LSD radioligand binding assay was used to determine the affinity of the compounds for the recombinant human 5-HT5A receptor, in membranes from transiently (cDNA) expressed 5-HT5A receptors in Human Embryonic Kidney-EBNA (HEK-EBNA) cells. Assay buffer consisted of Tris (50 mM) buffer containing 1 mM EGTA, 10 mM MgCl2 (pH 7.4) and 10 μM pargyline. The binding assay was carried out in 96-well-plates in the presence of [^3H]LSD (approximately 1 nM), approximately 2 μg/well of membrane protein, and 0.5 mg of Ysi-poly-1-lysine SPA beads in a final volume of 200 μl of buffer. Non-specific binding was defined using methiothepin 2 μM. Compounds were tested at 10 concentrations. All assays were conducted in duplicate and repeated at least two times. Assay plates were incubated for 120 min at room temperature before centrifugation. Bound ligand was determined using a Packard Topcount scintillation counter. IC50 values were calculated using a non-linear curve fitting program and Ki values calculated using the Cheng-Prussoff equation.
For `O=S(=O)(Nc1ccc2nc(N[C@@H]3CCc4ccccc43)ccc2c1)N1CCCC1` [Example 73, Pyrrolidine-1-sulfonic acid [2-((R)-indan-1-ylamino)-quinolin-6-yl]-amide], the Ki (in general, the equilibrium dissociation constant of an inhibitor or competing ligand from its target) is 3.2 nM.
Take `O=C(Nc1ccc2nc(N[C@@H]3CCc4ccccc43)ccc2c1)NC1CC2CCC1C2` (stereo partly drawn) [Example 26, 1-Bicyclo[2.2.1]hept-2-yl-3-[2-((R)-indan-1-ylamino)-quinolin-6-yl]-urea]: the Ki is 4.8 nM.
As to `COc1cccc2c1C(Nc1ccc3cc(NC(=O)NC4CCN(C5CC5)CC4)ccc3n1)CCC2` (racemic) [Example 55, rac-1-(1-Cyclopropyl-piperidin-4-yl)-3-[2-(8-methoxy-1,2,3,4-tetrahydro-naphthalen-1-ylamino)-quinolin-6-yl]-urea], the inhibitory constant (Ki) worked out at 9.7 nM.
The result for “(2-Methoxy-ethyl)-methyl-sulfonic acid [2-((R)-indan-1-ylamino)quinolin-6-yl]-amide [Example 75]” reads 8.3 nM; that for `O=C(Nc1ccc2nc(N[C@@H]3CCc4ccccc43)ccc2c1)NC1CCN(C2CC2)CC1` [Example 41, 1-(1-Cyclopropyl-piperidin-4-yl)-3-[2-((R)-indan-1-ylamino)-quinolin-6-yl]-urea], 4.1 nM; that for `COc1cccc2c1C(Nc1ccc3cc(NC(=O)C4CC4)ccc3n1)CC2` (racemic) [Example 140, rac-Cyclopropanecarboxylic acid [2-(7-methoxy-indan-1-ylamino)-quinolin-6-yl]-amide], 2.2 nM.
As for `COc1cccc2c1C(Nc1ccc3cc(NC(=O)NC4CCN(CCO)CC4)ccc3n1)CC2` (racemic) [Example 189, rac-1-[1-(2-Hydroxy-ethyl)-piperidin-4-yl]-3-[2-(7-methoxy-indan-1-ylamino)-quinolin-6-yl]-urea], the inhibition constant Ki came out at 1.8 nM.
On to `COc1cccc2c1C(Nc1ccc3cc(NS(=O)(=O)N4C[C@@H]5C[C@H]4CO5)ccc3n1)CCC2` (stereo partly drawn) [Example 91, (1S,4S)-2-Oxa-5-aza-bicyclo[2.2.1]heptane-5-sulfonic acid [2-(8-methoxy-1,2,3,4-tetrahydro-naphthalen-1-ylamino)-quinolin-6-yl]-amide], for which the Ki was 6.8 nM.
The result for `O=C(Nc1ccc2nc(NC3CCc4cc(F)ccc43)ccc2c1)C1CC1` (racemic) [Example 141, rac-Cyclopropanecarboxylic acid [2-(5-fluoro-indan-1-ylamino)-quinolin-6-yl]-amide] reads 8.6 nM; that for `O=S(=O)(Nc1ccc2nc(N[C@@H]3CCc4ccccc43)ccc2c1)N1CCSCC1` [Example 78, Thiomorpholine-4-sulfonic acid [2-((R)-indan-1-ylamino)-quinolin-6-yl]-amide], 7 nM; that for `COc1cccc2c1C(Nc1ccc3cc(NC(=O)NC(C)C)ccc3n1)CC2` (racemic) [Example 12, rac-1-Isopropyl-3-[2-(7-methoxy-indan-1-ylamino)-quinolin-6-yl]-urea], 1.5 nM.
Turning to `NS(=O)(=O)Nc1ccc2nc(N[C@@H]3CCc4ccccc43)ccc2c1` [Example 72, N-{2-[(1R)-2,3-dihydro-1H-inden-1-ylamino]quinolin-6-yl}sulfamide hydrochloride], the Ki amounted to 8.4 nM.
The result for `COc1cccc2c1C(Nc1ccc3cc(NS(=O)(=O)N4C[C@@H]5C[C@H]4CO5)ccc3n1)CC2` (stereo partly drawn) [Example 148, (1S,4S)-2-Oxa-5-aza-bicyclo[2.2.1]heptane-5-sulfonic acid [2-(7-methoxy-indan-1-ylamino)-quinolin-6-yl]-amide] reads 2.1 nM.
As to `CN1CCC(NC(=O)Nc2ccc3nc(NC4COc5ccccc54)ccc3c2)CC1` (racemic) [Example 35, rac-1-[2-(2,3-Dihydro-benzofuran-3-ylamino)-quinolin-6-yl]-3-(1-methyl-piperidin-4-yl)-urea], the inhibitory constant (Ki) came out at 9.6 nM.
For the compound `CC(C)N1C2CCCC1CC(NC(=O)Nc1ccc3nc(NC4CCc5ccccc54)ccc3c1)C2` [Example 168, 1-[2-((R)-Indan-1-ylamino)-quinolin-6-yl]-3-((3-exo)-9-isopropyl-9-aza-bicyclo[3.3.1]non-3-yl)-urea], the Ki worked out at 7.8 nM.
For `CN(C)C(=O)CN1CCC(NC(=O)Nc2ccc3nc(N[C@@H]4CCc5ccccc54)ccc3c2)CC1` [Example 136, 2-(4-{3-[2-((R)-Indan-1-ylamino)-quinolin-6-yl]-ureido}-piperidin-1-yl)-N,N-dimethylacetamide], the Ki is 6.5 nM.
The result for `O=C(Nc1ccc2nc(NC3CCc4cccc(F)c43)ccc2c1)C1CC1` (racemic) [Example 162, rac-Cyclopropanecarboxylic acid [2-(7-fluoro-indan-1-ylamino)-quinolin-6-yl]-amide] reads 8.3 nM; that for `COc1cccc2c1C(Nc1ccc3cc(NC(=O)N[C@@H]4C[C@H]5CC[C@@H](C4)N5C(C)C)ccc3n1)CC2` (mixture of isomers) [Example 186, rac-1-((3-exo)-8-Isopropyl-8-aza-bicyclo[3.2.1]oct-3-yl)-3-[2-(7-methoxy-indan-1-ylamino)-quinolin-6-yl]-urea], 5.7 nM; that for `COc1cc(C)cc2c1C(Nc1ccc3cc(NC(=O)NC4CCN(C)CC4)ccc3n1)CC2` (racemic) [Example 131, rac-1-[2-(7-Methoxy-5-methyl-indan-1-ylamino)-quinolin-6-yl]-3-(1-methyl-piperidin-4-yl)-urea], 2.9 nM.
The result for `NC(=O)Nc1ccc2nc(N[C@@H]3CCc4ccccc43)ccc2c1` [Example 9, [2-((R)-Indan-1-ylamino)-quinolin-6-yl]-urea] reads 2.9 nM.
For the compound `COc1cccc2c1C(Nc1ccc3cc(NC(=O)N(C)[C@@H]4C[C@H]5CC[C@@H](C4)N5C(C)C)ccc3n1)CC2` (mixture of isomers) [Example 188, rac-1-((3-exo)-8-Isopropyl-8-aza-bicyclo[3.2.1]oct-3-yl)-3-[2-(7-methoxy-indan-1-ylamino)-quinolin-6-yl]-1-methyl-urea], the Ki came out at 8.5 nM.
For the compound `CC(C)N1CCC(NC(=O)Nc2ccc3nc(N[C@@H]4CCc5ccccc54)ccc3c2)CC1` [Example 42, 1-[2-((R)-Indan-1-ylamino)-quinolin-6-yl]-3-(1-isopropyl-piperidin-4-yl)-urea], the Ki came out at 2.4 nM.
As to `CSCCN1CCC(NC(=O)Nc2ccc3nc(N[C@@H]4CCc5ccccc54)ccc3c2)CC1` [Example 48, 1-[2-((R)-Indan-1-ylamino)-quinolin-6-yl]-3-[1-(2-methylsulfanyl-ethyl)-piperidin-4-yl]-urea], the Ki was found to be 7.7 nM.
Turning to `O=C(Nc1ccc2nc(N[C@@H]3CCc4ccccc43)ccc2c1)N[C@@H]1C[C@H]2CC[C@@H](C1)N2C1CC1` [Example 99, 1-((3-exo)-8-Cyclopropyl-8-aza-bicyclo[3.2.1]oct-3-yl)-3-[2-((R)-indan-1-ylamino)-quinolin-6-yl]-urea], the Ki turned out to be 3.9 nM.
Turning to `COc1cccc2c1C(Nc1ccc3cc(NC(=O)NC4CCN(CCF)CC4)ccc3n1)CCC2` (racemic) [Example 59, rac-1-[1-(2-Fluoro-ethyl)-piperidin-4-yl]-3-[2-(8-methoxy-1,2,3,4-tetrahydro-naphthalen-1-ylamino)-quinolin-6-yl]-urea], the Ki was determined as 5.9 nM.
As for `CN1CCC(NC(=O)Nc2ccc3nc(N[C@@H]4CCc5ccccc54)ccc3c2)CC1` [Example 20, 1-[2-((R)-Indan-1-ylamino)-quinolin-6-yl]-3-(1-methyl-piperidin-4-yl)-urea], the Ki was determined as 1.8 nM.
Turning to `O=C(Nc1ccc2nc(N[C@@H]3CCc4ccccc43)ccc2c1)NC1CCN(CCO)CC1` [Example 137, 1-[1-(2-Hydroxy-ethyl)-piperidin-4-yl]-3-[2-((R)-indan-1-ylamino)-quinolin-6-yl]-urea], the Ki turned out to be 1.7 nM.
As for `COCCNC(=O)Nc1ccc2nc(N[C@@H]3CCc4ccccc43)ccc2c1` [Example 17, 1-[2-((R)-Indan-1-ylamino)-quinolin-6-yl]-3-(2-methoxy-ethyl)-urea], the Ki turned out to be 7 nM.
The result for `CC(C)NC(=O)Nc1ccc2nc(NC3CCc4cccc(F)c43)ccc2c1` (racemic) [Example 146, rac-1-[2-(7-Fluoro-indan-1-ylamino)-quinolin-6-yl]-3-isopropyl-urea] reads 6.1 nM.
Regarding `COc1cccc2c1C(Nc1ccc3cc(NS(=O)(=O)N(C)C)ccc3n1)CC2` (racemic) [Example 68, rac-N′-{2-[(7-methoxy-2,3-dihydro-1H-inden-1-yl)amino]quinolin-6-yl}-N,N-dimethylsulfamide], the Ki was determined as 2.5 nM.
For `COc1cccc2c1C(Nc1ccc3cc(NC(=O)C4CC4)ccc3n1)CO2` (racemic) [Example 195, rac-Cyclopropanecarboxylic acid [2-(4-methoxy-2,3-dihydro-benzofuran-3-ylamino)-quinolin-6-yl]-amide], the Ki came out at 7.3 nM.
`COc1cccc2c1C(Nc1ccc3cc(NC(=O)NC4CCN(C)CC4)ccc3n1)CCC2` (racemic) [Example 57, rac-1-[2-(8-Methoxy-1,2,3,4-tetrahydro-naphthalen-1-ylamino)-quinolin-6-yl]-3-(1-methyl-piperidin-4-yl)-urea]: the inhibitory constant (Ki) amounted to 5.8 nM.
Consider `CN1[C@@H]2CC[C@H]1C[C@H](NC(=O)Nc1ccc3nc(N[C@@H]4CCc5ccccc54)ccc3c1)C2` [Example 101, 1-[2-((R)-Indan-1-ylamino)-quinolin-6-yl]-3-((3-exo)-8-methyl-8-aza-bicyclo[3.2.1]oct-3-yl)-urea], for which the Ki came to 3.7 nM.
